Test results: the CheMixHub ionic liquid set

Assay: xn = mol fraction of the nth substance listed

C=C[n+]1ccn(CCCC)c1.N[C@@H](Cc1c[nH]cn1)C(=O)[O-] + O
101.3 kPa
Conditions	electrical conductivity [S/m]	viscosity [mPa·s]
303.15 K, x1 = 0.3	3.56	8.1
303.15 K, x1 = 0.9	0.59	1179
323.15 K, x1 = 1	0.21	1418
333.15 K, x1 = 0.3	–	4.19
343.15 K, x1 = 0.7	–	29.04
353.15 K, x1 = 0.5	–	12.68

CC(=O)[O-].C[NH+](C)C + O
298.15 K, 101 kPa
Conditions	viscosity [mPa·s]
x1 = 0.5942	2.59
x1 = 0.8068	2.64
x1 = 0.8639	2.66

CCCCCCCCCCCC[N+](C)(C)CC.[Br-] + O
viscosity [mPa·s], 101 kPa
Conditions	x1 = 3.604e-05	x1 = 9.009e-05	x1 = 0.0001441	x1 = 0.0001802	x1 = 0.0002702	x1 = 0.0003603	x1 = 0.0004503	x1 = 0.0005403
298.15 K	0.895	0.903	0.913	0.916	0.929	0.938	0.947	0.956
303.15 K	0.796	0.807	0.816	0.822	0.831	0.839	0.847	0.854
308.15 K	0.714	0.726	0.735	0.74	0.75	0.758	0.765	0.773
313.15 K	0.647	0.658	0.666	0.673	0.682	0.688	0.693	0.699
318.15 K	0.587	0.595	0.605	0.61	0.619	0.623	0.628	0.632

CCCC[N+]1(C)CCCC1.N#C[N-]C#N + O
100 kPa
Conditions	viscosity [mPa·s]
298.15 K, x2 = 0.8348	8
318.15 K, x2 = 0.5802	9
323.15 K, x2 = 0.6452	7
333.15 K, x2 = 0.5238	7
338.15 K, x2 = 0.371	7.8
338.15 K, x2 = 0.3756	7.8

CCCC[n+]1cccc(C)c1.F[B-](F)(F)F + O
298.15 K, 101 kPa
Conditions	electrical conductivity [S/m]
x1 = 0.0002144	0.107
x1 = 0.0004179	0.2
x1 = 0.0004845	0.232
x1 = 0.0007527	0.331
x1 = 0.001001	0.448
x1 = 0.001159	0.5
x1 = 0.00129	0.549
x1 = 0.001546	0.642
x1 = 0.001714	0.709
x1 = 0.001876	0.763
x1 = 0.002129	0.837
x1 = 0.002298	0.886
x1 = 0.002565	0.977
x1 = 0.002757	1.03
x1 = 0.002862	1.08
x1 = 0.003167	1.15
x1 = 0.003324	1.2

CCCn1cc[n+](C)c1.O=S(=O)([N-]S(=O)(=O)C(F)(F)F)C(F)(F)F + O
100 kPa, x2 = 0.272
Conditions	viscosity [mPa·s]
308.15 K	18.83
318.15 K	13.95
323.15 K	12.19
343.15 K	7.64
353.15 K	6.25

CC[NH+](C)CC.O=S(=O)([O-])C(F)(F)F + O + CC[NH+](C)CC.CS(=O)(=O)[O-]
viscosity [mPa·s], 101 kPa
Conditions	x2 = 0.027, x1 = 0.973	x2 = 0.05, x1 = 0.717	x2 = 0.07, x1 = 0.498	x2 = 0.089, x1 = 0.309	x2 = 0.107, x1 = 0.143	x2 = 0.114, x1 = 0.069
293.15 K	53.3	78.1	101.7	116.8	125.2	128.3
313.15 K	25.8	34	40.9	44.4	45.8	46.1
333.15 K	14.6	17.9	20.4	21.4	21.6	21.7
353.15 K	9.18	10.7	11.74	12.07	12.03	12.06

CCCC[n+]1ccn(C)c1.F[B-](F)(F)F + O + NCCO
100 kPa, x1 = 0.2723, x2 = 0.2627
Conditions	viscosity [mPa·s]
303 K	16.89
308 K	13.81
318 K	9.78
323 K	8.34

CCCCCCCCn1cc[n+](C)c1.O=S(=O)([N-]S(=O)(=O)C(F)(F)F)C(F)(F)F + O=C1CCCO1
100 kPa, frequency 0.005 MHz
Conditions	electrical conductivity [S/m]
293.15 K, x2 = 0.5048	0.325
298.15 K, x2 = 0	0.136
298.15 K, x2 = 0.6963	0.703
303.15 K, x2 = 0.9514	0.796
308.15 K, x2 = 0	0.207
313.15 K, x2 = 0.2993	0.401
318.15 K, x2 = 0	0.307
318.15 K, x2 = 0.0997	0.342
318.15 K, x2 = 0.8999	1.5
323.15 K, x2 = 0.2993	0.534
323.15 K, x2 = 0.9514	1.03

CCC[N+]1(C)CCCC1.O=S(=O)([N-]S(=O)(=O)C(F)(F)F)C(F)(F)F + O=C1CCCO1
101 kPa, frequency 0.0005 MHz
Conditions	electrical conductivity [S/m]
278.15 K, x1 = 0.3874	0.573
308.15 K, x1 = 0.1741	1.63
328.15 K, x1 = 0.06566	1.63
348.15 K, x1 = 0.1741	2.59
348.15 K, x1 = 0.3874	2.27
358.15 K, x1 = 0.06566	2.1

101 kPa
Conditions	viscosity [mPa·s]
278.15 K, x1 = 1	163.6
288.15 K, x1 = 0.1741	5.49
328.15 K, x1 = 0.1741	2.63
338.15 K, x1 = 0.06566	1.491
338.15 K, x1 = 0.1741	2.274
348.15 K, x1 = 0.1741	1.993
358.15 K, x1 = 0.1741	1.768
358.15 K, x1 = 1	10.34

CCC1COC(=O)O1 (stereo unspecified) + O=S(=O)([N-]S(=O)(=O)C(F)(F)F)C(F)(F)F.[Li+]
298.1 K, 100 kPa, x2 = 0.333
Conditions	electrical conductivity [S/m]	viscosity [mPa·s]
–	0.02	323

CCC1COC(=O)O1 (stereo unspecified) + O=S(=O)([N-]S(=O)(=O)C(F)(F)F)C(F)(F)F.[Li+] + COC(=O)OC
298.15 K, 100 kPa
Conditions	viscosity [mPa·s]
x2 = 0.333, x3 = 0	323
x2 = 0.333, x3 = 0.3335	157
x2 = 0.333, x3 = 0.5002	93.7

CCCC[n+]1ccn(C)c1.F[B-](F)(F)F + OCC(F)(F)F
101 kPa, x2 = 0
Conditions	viscosity [mPa·s]
278.15 K	360
283.15 K	255
288.15 K	186
293.15 K	139
298.15 K	106
303.15 K	82.2
308.15 K	65
313.15 K	52.2
318.15 K	42.6
323.15 K	35.2
328.15 K	29.5
333.15 K	25

CC[n+]1ccn(C)c1.N#C[N-]C#N + OCC(F)(F)F
100 kPa
Conditions	viscosity [mPa·s]
298.15 K, x1 = 0.2936	4.06
298.15 K, x1 = 0.3935	5.03
303.15 K, x1 = 0.1031	2.18
303.15 K, x1 = 0.5915	6.32
308.15 K, x1 = 0.8915	8.72
313.15 K, x1 = 1	8.86
318.15 K, x1 = 0.1957	2.07
318.15 K, x1 = 0.2936	2.62

CC[n+]1ccn(C)c1.N#C[N-]C#N + OCC(F)(F)F + CCO
viscosity [mPa·s], 100 kPa
Conditions	298.15 K	303.15 K	308.15 K	313.15 K	318.15 K
x1 = 0.0355, x2 = 0.8508	–	0.27	0.22	0.16	0.15
x1 = 0.0692, x2 = 0.8058	0.93	0.78	0.7	0.61	0.57
x1 = 0.1059, x2 = 0.7569	1.52	1.32	1.19	1.07	1
x1 = 0.1341, x2 = 0.7174	1.96	1.71	1.55	1.41	1.31
x1 = 0.1703, x2 = 0.668	2.49	2.19	1.99	1.82	–
x1 = 0.2026, x2 = 0.6226	2.94	2.59	2.36	2.16	–
x1 = 0.2373, x2 = 0.574	3.4	3.01	2.74	2.51	–
x1 = 0.2705, x2 = 0.5266	3.82	3.39	3.09	2.82	–
x1 = 0.3059, x2 = 0.4761	4.24	3.77	3.43	3.14	–
x1 = 0.3367, x2 = 0.4558	4.59	4.1	3.72	3.39	–
x1 = 0.3741, x2 = 0.4288	5	4.47	4.05	3.69	–
x1 = 0.4093, x2 = 0.4055	5.37	4.8	4.35	3.95	–
x1 = 0.4361, x2 = 0.3894	5.63	5.04	4.56	4.14	–
x1 = 0.4751, x2 = 0.3581	6.01	5.38	4.86	4.41	–
x1 = 0.5091, x2 = 0.3393	6.33	5.67	5.11	4.62	–
x1 = 0.539, x2 = 0.314	6.6	5.91	5.32	4.81	–
x1 = 0.576, x2 = 0.2854	6.92	6.19	5.57	5.03	–
x1 = 0.6046, x2 = 0.2689	7.16	6.41	5.75	5.19	–
x1 = 0.6344, x2 = 0.2517	7.42	6.62	5.94	5.36	–
x1 = 0.673, x2 = 0.2236	7.74	6.9	6.18	5.57	–
x1 = 0.7094, x2 = 0.2009	8.04	7.15	6.4	5.77	–
x1 = 0.7331, x2 = 0.1948	8.23	7.31	6.54	5.9	–
x1 = 0.7722, x2 = 0.1661	8.55	7.57	6.77	6.11	–
x1 = 0.8061, x2 = 0.1434	8.84	7.79	6.97	6.29	–

CCCC[n+]1ccn(C)c1.F[B-](F)(F)F + OCCO
298.15 K, 100 kPa, x1 = 1
Conditions	electrical conductivity [S/m]	viscosity [mPa·s]
–	0.243	104.7

CCCC[n+]1ccn(C)c1.F[B-](F)(F)F + OCCOCCOCCOCCO
Conditions	viscosity [mPa·s]
298.15 K, 101 kPa, x2 = 0	94.4

CCCC[n+]1ccn(C)c1.O=C([O-])C(F)(F)F + OCCOCCOCCOCCO
298.15 K, 101 kPa
Conditions	viscosity [mPa·s]
x2 = 0	71.1
x2 = 0.5	71

CCCCCCCCn1cc[n+](C)c1.O=S(=O)([N-]S(=O)(=O)C(F)(F)F)C(F)(F)F + c1ccccc1
293 K, 101 kPa
Conditions	viscosity [mPa·s]
x1 = 0.2	7.34
x1 = 0.6	46.2

CCCC[n+]1ccn(C)c1.F[B-](F)(F)F + c1ccncc1
298.15 K, 101 kPa, x2 = 0
Conditions	electrical conductivity [S/m]	viscosity [mPa·s]
–	0.194	116
